# Test results as given in patent US9517229B2, “Treatment of breast cancer” (MEDIVATION PROSTATE THERAPEUTICS, INC., priority 2011, dated 2016).
# Key:
# [1] = test system: MCF7-TGL cells; experiment: Estrogen stimulated MCF7-TGL orthotopic tumors in ovariectomized nude mice; assay type: in vivo; settings: for BrdU staining of tumor sections, P vs E2 group: BrdU two hours prior to sacrifice, ANOVA with Bonferroni correction, FIG. 11D
# Method: MCF7-TGL cells stably expressing luciferase were implanted orthotopically in the mammary gland of ovariectomized female nude mice. […] The beginning of treatment is indicated by an arrow. Tumor burden was measured by whole body luminescence. […] Mice were matched on day −3 and treatment began on day 0. * indicates P<0.05, ANOVA with Bonferroni's multiple comparison test correction (FIG. 11A). The total luminescent flux is shown for all individual mice at the day of matching (Day −3) and at the final imaging day (Day 11). * indicates P<0.05, ANOVA with Bonferroni's multiple comparison test correction (FIG. 11B). Images of luminescent signal in the two treatment groups at the day of matching ([…]) and the final day of imaging (day 11) is shown (FIG. 11C). Mice were injected with BrdU two hours prior to sacrifice.
# [2] = test system: BT20 cells; experiment: MTT assay in triple negative breast cancer cell line BT20; assay type: cell-based; settings: 10 μM RD162′, FIG. 6B
# [3] = test system: BCK4 cells; experiment: Proliferation assay, DHT-mediated growth in BCK4 cells; assay type: cell-based; settings: RD162′ and DHT; FIG. 2
# [4] = test system: MDA-MB-453 tumors; experiment: Androgen stimulated MDA-MB-453 orthotopic tumors in NOD-SCID-IL2Rgc-/- mice (Example 10); assay type: in vivo
# [5] = test system: MDA-MB-453 cells; experiment: MTS in vitro proliferation assay, DHT-induced proliferation of MDA-MB-453 cells; assay type: cell-based; settings: 10 μM RD162′, 10 nM DHT, FIG. 7A
# [6] = test system: Hs578T cells; experiment: MTS viable cell assay in Hs578T TNBC cell line; assay type: cell-based; settings: RD162′ 10 μM, DHT 10 nM, 9 days, FIG. 8
# Method: Viable cells were assayed by MTS assay. Averages of the triplicate data points are shown with standard deviation. ***p<0.001 (two-tail t-test).
# [7] = test system: MCF7 cells; experiment: MCF7 luciferase tumors in mammary fat pad of ovariectomized nod/scid mice with DHT pellet; assay type: in vivo; settings: chow containing 50 mg/kg RD162′ from day 22, FIGS. 5A-D
# [8] = test system: MCF7 cells; experiment: MTT in vitro proliferation assay, DHT-mediated growth in MCF7 cells; assay type: cell-based; settings: 10 μM RD162′ with 10 nM DHT; MTT at various time points; FIG. 1
# [9] = test system: MDA-MB-453 cells; experiment: MDA-MB-453 xenograft in mammary fat pad of NOD-SCID-IL2Rgc-/- mice with DHT pellet (Example 7); assay type: in vivo
# [10] = test system: MDA468 cells; experiment: MTT assay in triple negative breast cancer cell line MDA468; assay type: cell-based; settings: 10 μM RD162′, FIG. 6C
# [11] = test system: MCF7 cells; experiment: MTT assay, estradiol-mediated growth in MCF7 cells; assay type: cell-based; settings: 10 μM RD162′ with 10 nM estradiol (E2); MTT at various time points; FIG. 3
# Method: MCF7 cells were plated in phenol red-free medium containing charcoal stripped serum. […] An MTT assay was performed at various time points. The values were normalized to an untreated plate read 24 hours after plating to account for differences in cell density.
# [12] = test system: androgen-dependent luciferase reporter in MDA-kb2 cells; experiment: Luciferase assay in MDA-kb2 cells with androgen-dependent luciferase reporter; assay type: cell-based; settings: FIG. 7B
Compound,"BrdU staining of tumor sections, P vs E2 group [1]",cell growth of BT20 [2],cell viability of BT20 [2],DHT-mediated growth of BCK4 cells [3],"androgen stimulated growth of MDA-MB-453 tumors ([4]; RD162′ 10 mg/kg daily oral gavage from 100 mm^3, DHT pellet, FIGS. 10A-D)","tumor volume, DHT vs DHT+RD162′ ([4]; RD162′ 25 mg/kg by oral gavage started when tumors reached 400 mm^3, weekly caliper, FIG. 10A)",proliferation of MDA-MB-453 cells induced by DHT [5],growth of Hs578T cells (viable cells) [6],DHT-mediated tumor growth in vivo (caliper and IVIS imaging) [7],DHT-mediated growth of MCF7 cells [8],"DHT induced tumor growth (tumor weight at necropsy) ([9]; 10 mg/kg/d and 25 mg/kg/d RD162′ by oral gavage, both doses, FIG. 7E)","tumor growth induced by DHT (caliper tumor size) ([9]; 10 mg/kg/d or 25 mg/kg/d RD162′ by oral gavage, either dose, FIG. 7D)",cell growth of MDA468 [10],cell viability of MDA468 [10],"inhibition of estrogen stimulated tumor growth (whole body luminescence) ([1]; chow containing 50 mg/kg RD162′ vs tamoxifen pellet SQ, E2 pellet, FIGS. 11A-C)",estradiol-mediated growth of MCF7 cells [11],DHT-induced signal in luciferase assay (printed as proliferation) [12]
"CC/C(=C(\c1ccccc1)c1ccc(OCCN(C)C)cc1)c1ccccc1 [Tamoxifen, tamoxifen, reference compound]",< 0.01,–,–,–,–,–,–,–,–,–,–,–,–,–,–,–,–
"CNC(=O)c1ccc(N2C(=S)N(c3ccc(C#N)c(C(F)(F)F)c3)C(=O)C2(C)C)cc1F [RD162′, enzalutamide]",< 0.001,inhibits cell growth,decreases cell viability,blocks DHT-mediated growth,Inhibits Androgen Stimulated Growth,no significant differences at any time point,inhibits proliferation,Inhibits the Growth,inhibits DHT-mediated tumor growth,blocks DHT-mediated growth,significantly inhibited DHT induced tumor growth,inhibited tumor growth,inhibits cell growth,decreases cell viability,as Effective as Tamoxifen,blocks estradiol-mediated growth,inhibits proliferation induced by DHT in a dose dependent manner
"C[C@]12CCC(=O)C[C@@H]1CC[C@@H]1[C@@H]2CC[C@]2(C)[C@@H](O)CC[C@@H]12 [DHT, dihydrotestosterone, reference compound]",–,–,–,–,–,–,–,does not increase the growth,–,–,–,–,–,–,–,–,–
